The target in one assay is human MCH-2R (Homo sapiens, UniProt Q969V1). Nature of the assay: Radiolabeled MCH-R binding assay (SPA based), MCH-2R. The note with it: MCH-2R IC50 (nM).
The next assay has as its target human MCH-R2 (Homo sapiens, UniProt Q969V1). Nature of the assay: Aequorin bioluminescence functional assay, MCH-2R. To be noted: for EC50: MCH-2R EC50 (nM); for EC50 / MCH-2R Activation %: aequorin functional assay; for MCH-2R Activation %: % Activation at 10 μM; for selective activity at MCH-2R over MCH-1R: greater binding and/or activation at MCH-2R than at MCH-1R.

The target of assay [1] is T1, human MCH-1R (Homo sapiens, UniProt Q99705). Nature of the assay: Aequorin bioluminescence functional assay, MCH-1R. The note with it: for MCH-1R Activation %: % Activation at 10 μM, aequorin functional assay.
T1 sequence (Q99705 whole entry): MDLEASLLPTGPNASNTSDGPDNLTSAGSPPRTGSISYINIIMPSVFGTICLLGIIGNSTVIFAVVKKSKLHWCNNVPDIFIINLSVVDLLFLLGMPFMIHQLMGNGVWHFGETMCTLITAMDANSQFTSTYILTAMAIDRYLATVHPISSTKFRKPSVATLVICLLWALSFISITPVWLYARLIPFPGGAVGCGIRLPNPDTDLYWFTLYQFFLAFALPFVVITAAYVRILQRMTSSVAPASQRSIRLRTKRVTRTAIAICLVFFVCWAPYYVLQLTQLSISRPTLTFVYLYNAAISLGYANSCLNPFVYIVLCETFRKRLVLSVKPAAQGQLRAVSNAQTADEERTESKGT
Assay [2] addresses T1, human MCH-1R. Nature of the assay: Radiolabeled MCH-R binding assay (SPA based), MCH-1R.
Protocol: (§1) Cell membranes were prepared on ice. Each T-75 flask was rinsed twice with 10 ml of Enzyme-free Cell Dissociation Buffer (Specialty Media, Lavallette, N.J.), and the cell monolayer was detached in an additional 10 ml of Enzyme-free Cell Dissociation Buffer by incubation at room temperature for 10 minutes. Dissociated cells were centrifuged (500×g for 10 minutes at 4° C.), resuspended in 5 ml homogenization buffer (10 mM Tris-HCl, pH 7.4, 0.01 mM Pefabloc, 10 μM phosphoramidon, 40 μg/ml bacitracin) and then homogenized using a glass homogenizer (10-15 strokes). The homogenate was centrifuged for 10 minutes (1,000×g at 4° C.). The resulting supernatant was then centrifuged at 38,700×g for 15 minutes at 4° C. Pelleted membranes were resuspended (passed through 25 gauge needle 5 times), snap-frozen on liquid nitrogen, and stored at −80° C. until use.
(§2) For the SPA-based assay, WGA-PVT beads (NEN Life Sciences Products) were resuspended in Dulbecco's PBS with calcium and magnesium (500 mg beads in 4 ml PBS). […] The suspension was mixed gently for 20 minutes, 12.3 ml of assay buffer and protease inhibitors were added (final concentration given): 2 μg/ml leupeptin, 10 μM phosphoramidon, 40 μg/ml bacitracin, 5 μg/ml aprotinin, 0.1 mM Pefabloc.
(§3) Coated beads were kept on ice until use. […] Binding reactions were allowed to proceed at room temperature for 3 hours. Quantitation was performed by scintillation counting (TopCount device).
The mark [3] stands for this setting: Table 1, inhibition of [125I]-human MCH (Phe13, Tyr19) binding.

The source of these data is patent US7314861B2, “Melanin-concentrating hormone analogs” (priority 2001, dated 2008).

Where a SMILES comes first, the peptide text is derived from it. Bridges are numbered along the chain shown (N, C = ends). [ ]: non-standard residue; d: D form. hArg = N=C(N)NCCCC[C@H](N)C(=O)O Where only a bound is given, the exact number is not on record here.

Chain of human MCH-R2 (Q969V1 whole entry): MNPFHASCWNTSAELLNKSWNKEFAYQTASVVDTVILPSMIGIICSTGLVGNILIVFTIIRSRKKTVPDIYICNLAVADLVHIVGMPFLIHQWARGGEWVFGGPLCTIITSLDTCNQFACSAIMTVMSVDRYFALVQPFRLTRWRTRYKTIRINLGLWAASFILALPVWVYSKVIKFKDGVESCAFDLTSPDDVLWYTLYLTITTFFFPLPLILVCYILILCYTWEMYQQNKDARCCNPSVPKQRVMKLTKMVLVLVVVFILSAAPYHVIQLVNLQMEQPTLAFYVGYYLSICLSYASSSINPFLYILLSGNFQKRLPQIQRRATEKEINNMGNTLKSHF
Chain of human MCH-2R (Q969V1 whole entry): as above
Protocol for human MCH-2R: as §1, §2, §3
Protocol for human MCH-R2: The aequorin bioluminescence assay can be used to measure the activity of G protein-coupled receptors that couple through the Gα protein subunit family consisting of Gq and G11. Such coupling leads to phospholipase C activation, intracellular calcium mobilization and protein kinase C activation.
Following approximately 40 hours of expression the apo-aequorin in the cells was charged for 4 hours with coelenterazine (10 μM) under reducing conditions (300 μM reduced glutathione) in ECB buffer (140 mM NaCl, 20 mM KCl, 20 mM HEPES-NaOH [pH=7.4], 5 mM glucose, 1 mM MgCl2, 1 mM CaCl2, 0.1 mg/ml bovine serum albumin).
The cells were harvested, washed once in ECB medium and resuspended to 500,000 cells/ml. 100 μl of cell suspension (corresponding to 5×10^4 cells) was then injected into the test plate containing MCH or MCH analogs, and the integrated light emission was recorded over 30 seconds, in 0.5 second units. 20 μL of lysis buffer (0.1% final Triton X-100 concentration) was then injected and the integrated light emission recorded over 10 seconds, in 0.5 second units. The “fractional response” values for each well were calculated by taking the ratio of the integrated response to the initial challenge to the total integrated luminescence including the Triton X-100 lysis response.

For the compound `CSCC[C@@H]1NC(=O)[C@@H](NC(=O)[C@H](CCCNC(=N)N)NC(=O)[C@H](CC(C)C)NC(=O)[C@H](CCSC)NC(=O)[C@H](CC(=O)O)NC(=O)[C@H](Cc2ccccc2)NC(=O)[C@@H](N)CC(=O)O)CSSC[C@@H](C(=O)N[C@@H](Cc2c[nH]c3ccccc23)C(=O)N[C@@H](CCC(N)=O)C(=O)N[C@H](C(=O)O)C(C)C)NC(=O)[C@@H]2CCCN2C(=O)[C@H](CCCNC(=N)N)NC(=O)[C@H](Cc2ccc(O)cc2)NC(=O)[C@H](C(C)C)NC(=O)[C@H](CCCNC(=N)N)NC(=O)CNC(=O)[C@H](CC(C)C)NC1=O` [compound 1], the values for the IC50 on human MCH-2R (setting [3]), on human MCH-2R (Table 2) and at human MCH-2R (Table 3) were 0.5 nM, 0.5 nM and 0.9 nM, respectively. For the same compound, on human MCH-R2 (Table 1, 293-AEQ17 cells), the response was half-maximal at 30.7 nM (EC50). Also, the “MCH-2R Activation %” value on human MCH-R2 (Table 2) and on human MCH-R2 (Table 3) was 100% each time. Further, the “MCH-1R Activation %” value on human MCH-1R [1] (Table 2) and at human MCH-1R [1] (Table 3) was 100% each time.
Turning to `CSCC[C@@H]1NC(=O)[C@@H](NC(=O)[C@H](CCCNC(=N)N)NC(C)=O)CSSC[C@@H](C(N)=O)NC(=O)[C@@H]2CCCN2C(=O)[C@H](CCCNC(=N)N)NC(=O)[C@H](Cc2ccc(O)cc2)NC(=O)[C@H](C(C)C)NC(=O)[C@H](CCCNC(=N)N)NC(=O)[C@@H](CO)NC(=O)[C@H](CC(C)C)NC1=O` [compound 19], the “MCH-2R Activation %” value on human MCH-R2 (Table 1) is listed as 113%. Also, the “selective activity at MCH-2R over MCH-1R” value at human MCH-R2 was “selectively active”. On human MCH-1R [2], this compound yielded an IC50 of 31 nM. Besides, the “MCH-1R Activation %” value at human MCH-1R [1] (Table 1) is given as 47%.
`CSCC[C@@H]1NC(=O)[C@@H](NC(=O)[C@H](CCCNC(=N)N)NC(C)=O)CSSC[C@@H](C(N)=O)NC(=O)[C@@H]2CCCN2C(=O)[C@H](CCCNC(=N)N)NC(=O)[C@H](Cc2ccc(O)cc2)NC(=O)[C@H](C(C)C)NC(=O)[C@H](CCCCNC(=N)N)NC(=O)[C@@H](C)NC(=O)[C@H](CC(C)C)NC1=O` [compound 36] (Ac-RCML[dA][hArg]VYRPC-NH2; disulfide 2-11) returned an IC50 at human MCH-2R (setting [3]) of 0.9 nM. The EC50 on human MCH-R2 (Table 1, 293-AEQ17 cells) is 19 nM; at human MCH-1R [1], more than 10000 nM. Besides, the “MCH-2R Activation %” value at human MCH-R2 (Table 1) worked out at 74%. Besides, the “selective activity at MCH-2R over MCH-1R” value at human MCH-R2 is recorded as “selectively active”. In addition, the “MCH-1R Activation %” value on human MCH-1R [1] (Table 1) is reported as 0.1%.
As to `CSCC[C@@H]1NC(=O)[C@@H](NC(=O)[C@H](CCCNC(=N)N)NC(=O)[C@H](CC(C)C)NC(=O)[C@H](CCSC)NC(=O)[C@H](CC(=O)O)NC(=O)[C@H](Cc2ccccc2)NC(=O)[C@@H](N)CC(=O)O)CSSC[C@@H](C(=O)N[C@@H](Cc2c[nH]c3ccccc23)C(=O)N[C@@H](CCC(N)=O)C(=O)N[C@H](C(=O)O)C(C)C)NC(=O)[C@H](C)NC(=O)[C@H](CCCNC(=N)N)NC(=O)[C@H](Cc2ccc(O)cc2)NC(=O)[C@H](C(C)C)NC(=O)[C@H](CCCNC(=N)N)NC(=O)CNC(=O)[C@H](CC(C)C)NC1=O` [compound 53] (H-DFDMLRCMLGRVYRACWQV-OH; disulfide 7-16; N-terminus and C-terminus assumed), the IC50 on human MCH-2R (Table 3) was 19 nM. Further, the “MCH-2R Activation %” value at human MCH-R2 (Table 3) is recorded as 96%. For the same compound, on human MCH-1R [1] (Table 3), the “MCH-1R Activation %” value turned out to be 99%.
On to `CSCC[C@@H]1NC(=O)[C@@H](NC(=O)[C@H](CCCNC(=N)N)NC(C)=O)CSSC[C@@H](C(N)=O)NC(=O)[C@@H]2CCCN2C(=O)[C@H](CCCNC(=N)N)NC(=O)[C@H](Cc2ccc(O)cc2)NC(=O)[C@H](C(C)C)NC(=O)[C@H](CCCNC(=N)N)NC(=O)[C@@H](CC(N)=O)NC(=O)[C@H](CC(C)C)NC1=O` [compound 18], for which the IC50 at human MCH-2R (setting [3]) was found to be 2.3 nM. Also, a half-maximal response at human MCH-R2 (Table 1, 293-AEQ17 cells) (EC50) required 24 nM. In addition, on human MCH-R2 (Table 1), the “MCH-2R Activation %” value is reported as 106%. The “selective activity at MCH-2R over MCH-1R” value on human MCH-R2 is “selectively active”. Moreover, on human MCH-1R [1] (Table 1), the “MCH-1R Activation %” value came out at 39%.
On human MCH-2R (Table 3), `CSCC[C@@H]1NC(=O)[C@@H](NC(=O)[C@H](CCCNC(=N)N)NC(=O)[C@H](CC(C)C)NC(=O)[C@H](CCSC)NC(=O)[C@H](CC(=O)O)NC(=O)[C@H](Cc2ccccc2)NC(=O)[C@@H](N)CC(=O)O)CSSC[C@@H](C(=O)N[C@@H](Cc2c[nH]c3ccccc23)C(=O)N[C@@H](C)C(=O)N[C@H](C(=O)O)C(C)C)NC(=O)[C@@H]2CCCN2C(=O)[C@H](CCCNC(=N)N)NC(=O)[C@H](Cc2ccc(O)cc2)NC(=O)[C@H](C(C)C)NC(=O)[C@H](CCCNC(=N)N)NC(=O)CNC(=O)[C@H](CC(C)C)NC1=O` [compound 55] (H-DFDMLRCMLGRVYRPCWAV-OH; disulfide 7-16; N-terminus and C-terminus assumed) had an IC50 of 9.5 nM. Also, the “MCH-2R Activation %” value at human MCH-R2 (Table 3) turned out to be 97%. The “MCH-1R Activation %” value at human MCH-1R [1] (Table 3) is 99%.
Regarding `CSCC[C@@H]1NC(=O)[C@@H](NC(=O)[C@H](CCCNC(=N)N)NC(C)=O)CSSC[C@@H](C(N)=O)NC(=O)[C@@H]2CCCN2C(=O)[C@H](CCCNC(=N)N)NC(=O)[C@H](Cc2ccccc2)NC(=O)[C@H](C(C)C)NC(=O)[C@H](CCCNC(=N)N)NC(=O)CNC(=O)[C@H](CC(C)C)NC1=O` [compound 27], on human MCH-2R (setting [3]), the IC50 was 1.5 nM. It took 12 nM to reach a half-maximal effect at human MCH-R2 (Table 1, 293-AEQ17 cells) (EC50). In addition, the “MCH-2R Activation %” value on human MCH-R2 (Table 1) is given as 94%. For the same compound, the “MCH-1R Activation %” value on human MCH-1R [1] (Table 1) is recorded as 96%.
Regarding `CSCC[C@H](NC(=O)[C@H](CC(=O)O)NC(=O)[C@H](Cc1ccccc1)NC(=O)[C@@H](N)CC(=O)O)C(=O)N[C@@H](CC(C)C)C(=O)N[C@@H](CCCNC(=N)N)C(=O)N[C@H]1CSSC[C@@H](C(=O)N[C@@H](Cc2c[nH]c3ccccc23)C(=O)N[C@@H](CCC(N)=O)C(=O)N[C@H](C(=O)O)C(C)C)NC(=O)[C@@H]2CCCN2C(=O)[C@H](CCCNC(=N)N)NC(=O)[C@H](Cc2ccc(O)cc2)NC(=O)[C@H](C(C)C)NC(=O)[C@H](CCCNC(=N)N)NC(=O)CNC(=O)[C@H](CC(C)C)NC(=O)[C@H](C)NC1=O` [compound 47] (H-DFDMLRCALGRVYRPCWQV-OH; disulfide 7-16; N-terminus and C-terminus assumed), the IC50 at human MCH-2R (Table 3) was found to be 40 nM. For the same compound, the “MCH-2R Activation %” value at human MCH-R2 (Table 3) is 94%. In addition, the “MCH-1R Activation %” value at human MCH-1R [1] (Table 3) amounted to 56%.
In the case of `CSCC[C@@H]1NC(=O)[C@@H](NC(=O)[C@H](CCCNC(=N)N)NC(=O)[C@H](CC(C)C)NC(=O)[C@H](CCSC)NC(=O)[C@H](CC(=O)O)NC(=O)[C@H](Cc2ccccc2)NC(=O)[C@@H](N)CC(=O)O)CSSC[C@@H](C(=O)N[C@@H](C)C(=O)N[C@@H](CCC(N)=O)C(=O)N[C@H](C(=O)O)C(C)C)NC(=O)[C@@H]2CCCN2C(=O)[C@H](CCCNC(=N)N)NC(=O)[C@H](Cc2ccc(O)cc2)NC(=O)[C@H](C(C)C)NC(=O)[C@H](CCCNC(=N)N)NC(=O)CNC(=O)[C@H](CC(C)C)NC1=O` [compound 54] (H-DFDMLRCMLGRVYRPCAQV-OH; disulfide 7-16; N-terminus and C-terminus assumed), the “MCH-2R Activation %” value on human MCH-R2 (Table 3) was found to be 95%. Further, the “MCH-1R Activation %” value at human MCH-1R [1] (Table 3) is recorded as 100%.
For `CSCC[C@@H]1NC(=O)[C@@H](NC(=O)[C@H](CCCNC(=N)N)NC(=O)[C@H](CC(C)C)NC(=O)[C@H](CCSC)NC(=O)[C@H](CC(=O)O)NC(=O)[C@H](Cc2ccccc2)NC(=O)[C@@H](N)CC(=O)O)CSSC[C@@H](C(=O)N[C@@H](Cc2c[nH]c3ccccc23)C(=O)N[C@@H](CCC(N)=O)C(=O)N[C@H](C(=O)O)C(C)C)NC(=O)[C@@H]2CCCN2C(=O)[C@H](CCCNC(=N)N)NC(=O)[C@H](C)NC(=O)[C@H](C(C)C)NC(=O)[C@H](CCCNC(=N)N)NC(=O)CNC(=O)[C@H](CC(C)C)NC1=O` [compound 51] (H-DFDMLRCMLGRVARPCWQV-OH; disulfide 7-16; N-terminus and C-terminus assumed), on human MCH-R2 (Table 3), the EC50 is more than 1000 nM. Also, the “MCH-1R Activation %” value on human MCH-1R [1] (Table 3) was determined as 20%.
Regarding `CCCC[C@@H]1NC(=O)CNC(=O)[C@H](CC(C)C)NC(=O)[C@H](CCSC)NC(=O)[C@@H](NC(=O)[C@H](CCCNC(=N)N)NC(C)=O)CSSC[C@@H](C(N)=O)NC(=O)[C@@H]2CCCN2C(=O)[C@H](CCCNC(=N)N)NC(=O)[C@H](Cc2ccc(O)cc2)NC(=O)[C@H](C(C)C)NC1=O` [compound 26], the half-maximal inhibitory concentration (IC50) on human MCH-2R (setting [3]) came out at 9 nM. For the same compound, the “MCH-2R Activation %” value at human MCH-R2 (Table 1) is recorded as 34%. In addition, the “selective activity at MCH-2R over MCH-1R” value on human MCH-R2 is on record as “selectively active”. This compound also yielded an EC50 at human MCH-1R [1] of more than 1000 nM.
Consider `CSCC[C@@H]1NC(=O)[C@@H](NC(=O)[C@H](CCCNC(=N)N)NC(=O)[C@H](CC(C)C)NC(=O)[C@H](CCSC)NC(=O)[C@H](CC(=O)O)NC(=O)[C@H](Cc2ccccc2)NC(=O)[C@@H](N)CC(=O)O)CSSC[C@@H](C(=O)N[C@@H](Cc2c[nH]c3ccccc23)C(=O)N[C@@H](CCC(N)=O)C(=O)N[C@H](C(=O)O)C(C)C)NC(=O)[C@@H]2CCCN2C(=O)[C@H](CCCNC(=N)N)NC(=O)[C@H](Cc2ccc(O)cc2)NC(=O)[C@H](C(C)C)NC(=O)[C@H](C)NC(=O)CNC(=O)[C@H](CC(C)C)NC1=O` [compound 49] (H-DFDMLRCMLGAVYRPCWQV-OH; disulfide 7-16; N-terminus and C-terminus assumed), for which, on human MCH-R2 (Table 3), the EC50 is more than 1000 nM. Besides, the “MCH-1R Activation %” value on human MCH-1R [1] (Table 3) is 24%.
`CSCC[C@@H]1NC(=O)[C@@H](NC(=O)[C@H](CCCNC(=N)N)NC(C)=O)CSSC[C@@H](C(N)=O)NC(=O)[C@@H]2CCCN2C(=O)[C@H](CCCNC(=N)N)NC(=O)[C@H](Cc2ccc(O)cc2)NC(=O)[C@H](C(C)C)NC(=O)[C@H](CCCNC(=N)N)NC(=O)[C@H](CO)NC(=O)[C@H](CC(C)C)NC1=O` [compound 10]: the “MCH-2R Activation %” value at human MCH-R2 (Table 1) is given as 95%. In addition, the “MCH-1R Activation %” value on human MCH-1R [1] (Table 1) is listed as 104%.
